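Cells were grown in 96-well plates and exposed to each compound for 48 hours at five concentrations; endpoints were interpolated linearly between bracketing concentrations, or set to the highest concentration if not reached. GI50: concentration for 50% inhibition of growth.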 The source made the active and inactive calls. No stated cut-off is given here; in the data, active = GI50 up to about 1.1 µM and inactive = higher.
Legend:
Assay in all cases: DTP human tumour cell line panel, 48 h
[1] = system: SN12C
[2] = system: 786-0
[3] = system: SR
[4] = system: TK-10
[5] = system: UACC-257
[6] = system: OVCAR-5
[7] = system: SF-295
[8] = system: NCI-H226
[9] = system: T47D
[10] = system: LOX IMVI
[11] = system: OVCAR-8
[12] = system: SK-MEL-5
[13] = system: RPMI-8226
[14] = system: HT-29
[15] = system: SF-268
[16] = system: SNB-19
[17] = system: OVCAR-4
[18] = system: SK-OV-3
[19] = system: SK-MEL-2
[20] = system: SF-539
[21] = system: MDA-MB-231
[22] = system: A498
[23] = system: PC-3
[24] = system: EKVX
[25] = system: M14
[26] = system: SW-620
[27] = system: HCC 2998
[28] = system: COLO 205
[29] = system: NCI/ADR-RES
[30] = system: MCF7
[31] = system: MOLT-4
[32] = system: A549
[33] = system: HL-60
[34] = system: HOP-92
[35] = system: UACC-62
[36] = system: RXF 393
[37] = system: HCT-116
[38] = system: KM12
[39] = system: BT-549
[40] = system: SK-MEL-28
[41] = system: NCI-H522
[42] = system: UO-31
[43] = system: ACHN
[44] = system: HCT-15
[45] = system: Hs-578T
[46] = system: IGROV-1
[47] = system: HOP-62
[48] = system: MDA-N
[49] = system: NCI-H460
[50] = system: K562
[51] = system: MDA-MB-435
[52] = system: CCRF-CEM
[53] = system: NCI-H23
[54] = system: DU-145
[55] = system: SNB-75
[56] = system: OVCAR-3
[57] = system: Malme-3M
[58] = system: U-251

COc1cccc(C2c3cc4c(cc3OC(C)(O)C2C)OCO4)c1O (stereo not drawn)
GI50 [1]: 5.27 µM (inactive) | GI50 [2]: 4.44 µM (inactive) | GI50 [3]: 2.18 µM (inactive) | GI50 [4]: 5.56 µM (inactive) | GI50 [5]: 8.15 µM (inactive) | GI50 [6]: 8.09 µM (inactive) | GI50 [7]: 2.96 µM (inactive) | GI50 [8]: 5.12 µM (inactive) | GI50 [9]: 3.82 µM (inactive) | GI50 [10]: 5.12 µM (inactive) | GI50 [11]: 4.94 µM (inactive) | GI50 [12]: 2.84 µM (inactive) | GI50 [13]: 4.17 µM (inactive) | GI50 [14]: 3.88 µM (inactive) | GI50 [15]: 8.79 µM (inactive) | GI50 [16]: 5.2 µM (inactive) | GI50 [17]: 11.6 µM (inactive) | GI50 [18]: 3.57 µM (inactive) | GI50 [19]: 9.89 µM (inactive) | GI50 [20]: 2.67 µM (inactive) | GI50 [21]: 0.897 µM (active) | GI50 [22]: 3.24 µM (inactive) | GI50 [23]: 3.37 µM (inactive) | GI50 [24]: 13.6 µM (inactive) | GI50 [25]: 3.48 µM (inactive) | GI50 [26]: 3.25 µM (inactive) | GI50 [27]: 4.2 µM (inactive) | GI50 [28]: 2.19 µM (inactive) | GI50 [29]: 2.13 µM (inactive) | GI50 [30]: 4.25 µM (inactive) | GI50 [31]: 5.25 µM (inactive) | GI50 [32]: 4.57 µM (inactive) | GI50 [33]: 2.82 µM (inactive) | GI50 [34]: 6 µM (inactive) | GI50 [35]: 5.12 µM (inactive) | GI50 [36]: 3.69 µM (inactive) | GI50 [37]: 3.64 µM (inactive) | GI50 [38]: 3.33 µM (inactive) | GI50 [39]: 9.71 µM (inactive) | GI50 [40]: 10.5 µM (inactive) | GI50 [41]: 2.27 µM (inactive) | GI50 [42]: 6.14 µM (inactive) | GI50 [43]: 7.06 µM (inactive) | GI50 [44]: 3.64 µM | GI50 [45]: 2.68 µM (inactive) | GI50 [46]: 5.2 µM (inactive) | GI50 [47]: 4.2 µM (inactive) | GI50 [48]: 1.48 µM (inactive) | GI50 [49]: 3.81 µM (inactive) | GI50 [50]: 3.87 µM (inactive) | GI50 [51]: 1.42 µM (inactive) | GI50 [52]: 4.45 µM (inactive) | GI50 [53]: 0.966 µM (active) | GI50 [54]: 4.48 µM (inactive) | GI50 [55]: 5 µM (inactive) | GI50 [56]: 2.81 µM (inactive) | GI50 [57]: 6.18 µM (inactive) | GI50 [58]: 3.83 µM (inactive)
